Source: US12492223B2, “Peptide compositions capable of binding lanthionine synthetase C-like protein (LanCl) and uses thereof” (priority 2021, dated 2025)
Positions of bridges follow the written chain, without caps; N, C: chain ends. Residues, ends and D or L forms follow the SMILES beside them. No end group written: not given here.

Assays:
[1] = target: recombinant LanCL1 (rLanCL1) (Homo sapiens, UniProt O43813); test: biochemical; assay type: binding
Protocol: Dry pellets of LANCL1 previously photolabelled with photoprobes in the presence of different peptides or PBS/DMSO vehicle were resuspended in 30 μL SDS loading buffer (Bio Rad's XT Sample Buffer containing 2.5% v/v 2-mercaptoethanol) and heated (60° C., 30 min). Proteins were resolved using SDS-PAGE (4-15% Criterion™ TGX Stain-Free™ Protein Gel, Bio Rad) and analyzed by in-gel fluorescence scanning using a ChemiDoc™ MP Imaging System (Bio Rad) with a green LED light as an excitation source and a BP600/20 nm emission filter. After in-gel fluorescence scanning, gels were stained with Coomassie blue to ensure the same amount of protein sample was loaded in each lane and imaged with the ChemiDoc™ MP Imaging System. Photoincorporation of each photoprobe in LANCL1 was quantitatively assessed by measuring the fluorescent intensity of the corresponding gel band using Image lab software (Bio Rad) and normalizing this value against the intensity value of LANCL1 gel band stained with Coomassie blue to control for loading differences.
(SEQ ID NO:22) from recombinant LanCL1 (rLanCL1).

HKx31 (H3N2) = assay type: in vivo, mice; set-up: key to PMN activity score / Viral titre activity score / BAL IL-6 activity score: 0: inactive; 1: less active than the peptide of SEQ ID NO:38; 2: comparable or more active than the peptide of SEQ ID NO:38; conditions: for IL-6 levels in the BAL fluid / viral titres: 10 mg/kg single dose; for viral titres: day 3; for BAL IL-6 activity score / PMN activity score / Viral titre activity score: mouse, in vivo, 10 mg/kg; for reducing the PMN infiltrate in BAL fluid, compared with the peptide of SEQ ID NO:38: single 10 mg/kg dose
A549 cells = test: A549 proliferation + stress assay (restoration of viability of Taxol-treated cells, CellTiter-Glo); assay type: cell-based, human; conditions: for Estimated Activity in A549 proliferation + stress assay: 350 μM Taxol, 16 hours, peptide 1-100 μM; for restoration of A549 viability: Taxol-treated A549 cells
Protocol: An assay was developed that involves stressing cells with a dose of the chemotherapeutic agent, Taxol, that causes a 50% inhibition of cell viability when compared to untreated cells. Peptides were then added to the cell cultures at increasing concentrations to assess their ability to restore the viability of the Taxol-treated cells.
Briefly, A549 cells were cultured in opaque-walled multiwell plates with 50000 A549 cells/well in culture medium (DMEM medium ref 11960-044 Thermoscientific, +10% FBS ref 10270-106 Gibco, Thermoscientific, +1% Na pyruvate ref S8636-100 ML, Sigma, +1%, Glutamax ref35050061, Thermoscientific, +1% Penicillin-Streptomycin, ref 11074440001, Sigma) 100 μl per well for 96-well plates. Control wells containing medium without cells were used to obtain a value for background luminescence. Cells were incubated at 37° C. in 5% CO2 overnight.
100 μL of medium+DMSO+peptides or medium+Taxol+peptides (at the different concentrations) were added to each well and incubated for 16 hours at 37° C. 5% CO2.
Cell morphology, viability and confluency were assessed by phase contrast microscopy. The CellTiter-Glo® Luminescent Cell Viability Assay (G7571, Promega—a homogeneous method to determine the number of viable cells in culture based on quantitation of the ATP present) was then used to quantify the number of metabolically active cells, according to the manufacturer's instructions. 100 μl volume of CellTiter-Glo® Reagent was added to the 100 μL volume of cell culture medium present in each well, Contents were mixed for 2 minutes on an orbital shaker to induce cell lysis and after incubating the plates at room temperature for 10 minutes to stabilize luminescent signal luminescence was recorded with an integration time of 0.5 seconds using a CLARIOstar multi well luminometer (BMG Labtech)

Chung rats = test: In vivo model of neuropathic pain (Chung model, Example 4); set-up: species or system rat; conditions: oral, subcutaneous and/or intramuscular administration
Description: This study was undertaken to assess the analgesic effect of the peptides described herein on neuropathic pain in vivo using a nerve constriction model in Chung rats. Briefly, adult male Sprague-Dawley rats, 8-9 weeks old, weighing 220-250 g at the time of surgery, were purchased from Charles River UK Ltd.
The animals were housed in groups of 4 in an air-conditioned room on a 12-hour light/dark cycle. Food and water were available ad libitum. They were allowed to acclimatise to the experimental environment for three days by leaving them on a raised metal mesh for at least 40 min. The baseline paw withdrawal threshold (PWT) was examined using a series of graduated von Frey hairs for 3 consecutive days before surgery and re-assessed on the 6th to 8th day after surgery and on the 12th to 14th day after surgery before drug dosing.
Each rat was anaesthetized with 5% isoflurane mixed with oxygen (2 L per min) followed by an intramuscular (i.m.) injection of ketamine 90 mg/kg plus xylazine 10 mg/kg. The back was shaved and sterilized with povidone-iodine. The animal was placed in a prone position and a para-medial incision was made on the skin covering the L4-6 level. The L5 spinal nerve was carefully isolated and tightly ligated with 6/0 silk suture. The wound was then closed in layers after a complete hemostasis. A single dose of antibiotics (Amoxipen, 15 mg/rat, i.p.) was routinely given for prevention of infection after surgery. The animals were placed in a temperature-controlled recovery chamber until fully awake before being returned to their home cages.
The vehicle (1% DMSO in PBS) or peptide was administrated intramuscularly (i.m.) into the leg of the side contralateral to the site of injury. Dosing was carried out by a second experimenter. […]
Each group had 8 animals. […] The lowest amount of force required to induce reliable responses (positive in 3 out of 5 trials) was recorded as the value of PWT.
The drug test was carried out on the 12th to 14th day after surgery. PWT were assessed before, 1, 2 and 4 hours following drug or vehicle administration. […]

Chain of recombinant LanCL1 (rLanCL1) (O43813 whole entry, species assumed): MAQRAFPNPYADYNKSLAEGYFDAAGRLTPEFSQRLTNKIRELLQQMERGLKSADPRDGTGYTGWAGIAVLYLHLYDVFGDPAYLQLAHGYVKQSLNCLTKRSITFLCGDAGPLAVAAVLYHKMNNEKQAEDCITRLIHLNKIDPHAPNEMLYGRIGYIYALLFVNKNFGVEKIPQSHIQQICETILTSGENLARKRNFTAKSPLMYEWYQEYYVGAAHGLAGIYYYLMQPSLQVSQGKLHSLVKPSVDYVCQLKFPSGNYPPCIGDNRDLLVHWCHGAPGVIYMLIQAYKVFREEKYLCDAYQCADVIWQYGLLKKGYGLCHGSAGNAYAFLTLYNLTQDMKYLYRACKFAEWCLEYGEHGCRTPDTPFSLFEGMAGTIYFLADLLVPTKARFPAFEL

## RALNSS [compound 39]
[1]
  EC50: > 200 µM

## CC[C@H](C)[C@@H]1NC(=O)[C@H](CCCNC(=N)N)NC(=O)[C@@H](N)CSSC[C@@H](C(=O)O)NC(=O)[C@H](CC(N)=O)NC(=O)[C@H](CC(N)=O)NC(=O)[C@H](CC(N)=O)NC(=O)[C@H](Cc2c[nH]cn2)NC(=O)[C@H]([C@@H](C)CC)NC1=O [compound 24] (H-CRIIHNNNC-OH; disulfide 1-9)
[1]
  EC50: 100 to 200 µM

## CC(C)C[C@@H]1NC(=O)[C@H](C)NC(=O)[C@H](CCCNC(=N)N)NC(=O)[C@H](CCC(=O)O)NC(=O)[C@H](CC(C)C)NC(=O)[C@H](CCC(N)=O)NC(=O)[C@H](CCC(=O)O)NC(=O)[C@H](CCC(N)=O)NC(=O)[C@@H](N)CSSC[C@@H](C(=O)O)NC(=O)[C@H](CO)NC(=O)[C@H](CO)NC(=O)[C@H](CC(N)=O)NC1=O [compound 38] (H-CQEQLERALNSSC-OH; disulfide 1-13)
[1]
  EC50: 50 to 100 µM

## 42 (KALPRS) [compound 42]
HKx31 (H3N2)
  IL-6 levels in the BAL fluid: as effective
  viral titres: effective
  BAL IL-6 activity score: 2
  PMN activity score: 2
  Viral titre activity score: 2
  reducing the PMN infiltrate in BAL fluid, compared with the peptide of SEQ ID NO:38: as effective
A549 cells
  Estimated Activity in A549 proliferation + stress assay: STRONG (clear dose-dependent restoration of cell viability from 1-5 μM upwards)
  restoration of A549 viability: partially restore A549 viability

## 2 (CRSVEGSCGF; disulfide 1-8) [compound 2]
HKx31 (H3N2)
  PMN activity score: 2
  reducing the PMN infiltrate in BAL fluid, compared with the peptide of SEQ ID NO:38: as effective
Chung rats
  neuropathic pain in the Chung model: reduced neuropathic pain

## QEQLERALNSS [compound 37]
[1]
  EC50: 100 to 200 µM

## 9 (RSVEGS) [compound 9]
HKx31 (H3N2)
  IL-6 levels in the BAL fluid: as effective
  viral titres: effective
  BAL IL-6 activity score: 2
  PMN activity score: 2
  Viral titre activity score: 2
  reducing the PMN infiltrate in BAL fluid, compared with the peptide of SEQ ID NO:38: as effective
A549 cells
  Estimated Activity in A549 proliferation + stress assay: STRONG (clear dose-dependent restoration of cell viability from 1-5 μM upwards)
  restoration of A549 viability: restored the Taxol-induced loss of cell viability

## 59 (RALNS) [compound 59]
HKx31 (H3N2)
  BAL IL-6 activity score: 2
  PMN activity score: 2
  Viral titre activity score: 2
A549 cells
  Estimated Activity in A549 proliferation + stress assay: WEAK-MODERATE

## CC(C)[C@@H]1NC(=O)[C@@H]2CCCN2C(=O)[C@H](CCCNC(=N)N)NC(=O)[C@H](CO)NC(=O)[C@H](CCCNC(=N)N)NC(=O)[C@@H](N)CSSC[C@@H](C(=O)N[C@@H](CO)C(=O)O)NC(=O)[C@H](CO)NC(=O)[C@H](CO)NC(=O)[C@H](CCC(=O)O)NC1=O [compound 14] (H-CRSRPVESSCS-OH; disulfide 1-10; N-terminus and C-terminus assumed)
[1]
  EC50: ~100 µM
A549 cells
  Estimated Activity in A549 proliferation + stress assay: STRONG (clear dose-dependent restoration of cell viability from 1-5 μM upwards)

## 60 (RALN) [compound 60]
HKx31 (H3N2)
  BAL IL-6 activity score: 2
  PMN activity score: 2
  Viral titre activity score: 2
A549 cells
  Estimated Activity in A549 proliferation + stress assay: WEAK (some or variable restoration of cell viability at 50-100 μM)

## 10 (SCRSRPVESSC; disulfide 2-11) [compound 10]
Chung rats
  neuropathic pain in the Chung model: reduced neuropathic pain
A549 cells
  Estimated Activity in A549 proliferation + stress assay: STRONG (clear dose-dependent restoration of cell viability from 1-5 μM upwards)
  restoration of A549 viability: restore A549 viability

## CC[C@H](C)[C@H](NC(=O)[C@H](CCCNC(=N)N)NC(=O)[C@H](CC(C)C)NC(=O)[C@@H](N)Cc1ccc(O)cc1)C(=O)N[C@H](C(=O)N[C@@H](CCC(N)=O)C(=O)N[C@H]1CSSC[C@@H](C(=O)NCC(=O)N[C@@H](Cc2ccccc2)C(=O)O)NC(=O)[C@H](CO)NC(=O)CNC(=O)[C@H](CCC(=O)O)NC(=O)[C@H](C(C)C)NC(=O)[C@H](CO)NC(=O)[C@H](CCCNC(=N)N)NC1=O)C(C)C [compound 1] (H-YLRIVQCRSVEGSCGF-OH; disulfide 7-14)
[1]
  EC50: 50 to 100 µM

## CC(C)C[C@@H]1NC(=O)[C@H](C)NC(=O)[C@H](CCCNC(=N)N)NC(=O)[C@@H](N)CSSC[C@@H](C(=O)O)NC(=O)[C@H](CO)NC(=O)[C@H](CO)NC(=O)[C@H](CC(N)=O)NC1=O [compound 40] (H-CRALNSSC-OH; disulfide 1-8)
[1]
  EC50: 50 to 100 µM

## CC(C)[C@@H]1NC(=O)[C@H](CO)NC(=O)[C@H](CCCNC(=N)N)NC(=O)[C@@H](N)CSSC[C@@H](C(=O)NCC(=O)O)NC(=O)[C@H](CO)NC(=O)CNC(=O)[C@H](CCC(=O)O)NC1=O [compound 3] (H-CRSVEGSCG-OH; disulfide 1-8; N-terminus and C-terminus assumed)
Chung rats
  neuropathic pain in the Chung model: reduced neuropathic pain
[1]
  EC50: ~150 µM
